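Exposure lasted 48 hours, with cells grown in 96-well plates and compounds tested at five concentrations. Abbreviation: GI50, concentration required for 50% inhibition of growth.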 Calls of active or inactive are those of the source. No stated cut-off is given here; in the data, active = GI50 up to about 1.1 µM and inactive = higher.
Experiments:
Assay in all cases: NCI tumour cell line growth inhibition, 48 h
HCT-15 = test system: HCT-15
CCRF-CEM = test system: CCRF-CEM
NCI-H522 = test system: NCI-H522
SN12C = test system: SN12C
NCI-H460 = test system: NCI-H460
MOLT-4 = test system: MOLT-4
A498 = test system: A498
OVCAR-4 = test system: OVCAR-4
HOP-62 = test system: HOP-62
SW-620 = test system: SW-620
U-251 = test system: U-251
SF-539 = test system: SF-539
A549 = test system: A549
COLO 205 = test system: COLO 205
UO-31 = test system: UO-31
OVCAR-3 = test system: OVCAR-3
K562 = test system: K562
ACHN = test system: ACHN
LOX IMVI = test system: LOX IMVI
TK-10 = test system: TK-10

Row | SMILES | GI50 (HCT-15) [µM] | GI50 (CCRF-CEM) | GI50 (NCI-H522) | GI50 (SN12C) | GI50 (NCI-H460) | GI50 (MOLT-4) | GI50 (A498) | GI50 (OVCAR-4) | GI50 (HOP-62) | GI50 (SW-620) | GI50 (U-251) | GI50 (SF-539) | GI50 (A549) | GI50 (COLO 205) | GI50 (UO-31) | GI50 (OVCAR-3) | GI50 (K562) | GI50 (ACHN) | GI50 (LOX IMVI) | GI50 (TK-10)
1 | N#Cc1ccsc1Nc1ccccc1[N+](=O)[O-] | > 100 | > 100 µM (inactive) | 63.7 µM (inactive) | > 100 µM (inactive) | > 100 µM (inactive) | > 100 µM (inactive) | > 100 µM (inactive) | > 100 µM (inactive) | 38.1 µM (inactive) | > 100 µM (inactive) | 72.9 µM (inactive) | > 100 µM (inactive) | > 100 µM (inactive) | > 100 µM (inactive) | > 100 µM (inactive) | > 100 µM (inactive) | > 100 µM (inactive) | > 100 µM (inactive) |  | 
2 | O=C(Nc1ccc(F)cc1)c1cc2c(cc1Cl)Sc1nccn1S2(=O)=O | 81.7 | > 100 µM (inactive) | 76.9 µM (inactive) | 51.2 µM (inactive) | 33.5 µM (inactive) | > 100 µM (inactive) | 23.7 µM (inactive) | 55.7 µM (inactive) | 34.8 µM (inactive) | > 100 µM (inactive) | 16.3 µM (inactive) | 37 µM (inactive) | > 100 µM (inactive) | > 100 µM (inactive) |  | 84.5 µM (inactive) | > 100 µM (inactive) | 63.1 µM (inactive) | > 100 µM (inactive) | 
3 | CCC(CC)C(=O)OC[n+]1ccc(-c2c(COC(=O)NC(C)C)c(COC(=O)NC(C)C)c3n2CCC3)cc1 | > 100 | > 100 µM (inactive) | > 100 µM (inactive) | > 100 µM (inactive) |  | > 100 µM (inactive) | > 100 µM (inactive) | > 100 µM (inactive) | > 100 µM (inactive) | > 100 µM (inactive) | > 100 µM (inactive) | > 100 µM (inactive) | > 100 µM (inactive) | > 100 µM (inactive) | > 100 µM (inactive) | > 100 µM (inactive) | > 100 µM (inactive) |  |  | 
4 | CC(C)OP(=O)(OC(C)C)c1nc(-c2ccccc2)n(-c2ccc([N+](=O)[O-])cc2)n1 | > 100 | > 100 µM (inactive) | 98.9 µM (inactive) | > 100 µM (inactive) | > 100 µM (inactive) | > 100 µM (inactive) | > 100 µM (inactive) | > 100 µM (inactive) | > 100 µM (inactive) | > 100 µM (inactive) | > 100 µM (inactive) | > 100 µM (inactive) | > 100 µM (inactive) | > 100 µM (inactive) | > 100 µM (inactive) | > 100 µM (inactive) | 85.5 µM (inactive) | > 100 µM (inactive) |  | > 100 µM (inactive)
5 | O=S(OC12CC3CC(CC(C3)C1)C2)c1cc(Cl)cc(Cl)c1OCc1ccccc1 (centres undefined) |  | > 100 µM (inactive) | 19 µM (inactive) | > 100 µM (inactive) | > 100 µM (inactive) | > 100 µM (inactive) | > 100 µM (inactive) | > 100 µM (inactive) | > 100 µM (inactive) |  | > 100 µM (inactive) | > 100 µM (inactive) |  |  | > 100 µM (inactive) | > 100 µM (inactive) | > 100 µM (inactive) | > 100 µM (inactive) | > 100 µM (inactive) | > 100 µM (inactive)
6 | COc1cc(OC)c(OC)cc1/C=C\c1ccnc2ccccc12 | 0.437 | 1.4 µM (inactive) | 0.333 µM (active) | 0.622 µM (active) | 0.555 µM (active) | 0.575 µM (active) | 0.522 µM (active) | 4.51 µM (inactive) | 0.582 µM (active) | 0.679 µM (active) | 0.628 µM (active) | 0.394 µM (active) | 0.849 µM (active) | 0.463 µM (active) | 0.944 µM (active) | 0.387 µM (active) | 0.282 µM (active) | 1.29 µM (inactive) | 0.61 µM (active) | 2.17 µM (inactive)
7 | Cc1ccc(P(c2ccc(C)cc2)c2ccc(C)cc2)cc1 | 20.2 | 20.4 µM (inactive) | 11.4 µM (inactive) | 17 µM (inactive) | 12.9 µM (inactive) | 16.5 µM (inactive) | 27.1 µM (inactive) | 19.8 µM (inactive) |  | 26.2 µM (inactive) | 14.3 µM (inactive) | 21.6 µM (inactive) | 14.6 µM (inactive) | 14.5 µM (inactive) | < 0.01 µM (active) | 15.7 µM (inactive) | 4.83 µM (inactive) | 23.2 µM (inactive) | 14.9 µM (inactive) | 31 µM (inactive)
8 | CCOC(=O)CNC(=O)C(C)NC(=O)C(NC(=O)CC(c1ncc[nH]1)c1ncc[nH]1)C(C)CC (centres undefined) | > 100 | > 100 µM (inactive) | > 100 µM (inactive) | > 100 µM (inactive) | > 100 µM (inactive) | > 100 µM (inactive) | > 100 µM (inactive) | 63.7 µM (inactive) |  | > 100 µM (inactive) | > 100 µM (inactive) | > 100 µM (inactive) | > 100 µM (inactive) | > 100 µM (inactive) | > 100 µM (inactive) | > 100 µM (inactive) | > 100 µM (inactive) | > 100 µM (inactive) | > 100 µM (inactive) | > 100 µM (inactive)
9 | CC(C)C(=O)OCN(C)c1nc(N(C)COC(=O)C(C)C)nc(N(C)COC(=O)C(C)C)n1 | 21.6 | 22.3 µM (inactive) | 18.3 µM (inactive) | 28.4 µM (inactive) | 21.8 µM (inactive) | 22.3 µM (inactive) | 36 µM (inactive) | 23.8 µM (inactive) | 33.2 µM (inactive) | 21.6 µM (inactive) |  | 23.2 µM (inactive) | 43.1 µM (inactive) | 20.1 µM (inactive) | 22.2 µM (inactive) | 36.6 µM (inactive) | 30.5 µM (inactive) | 32 µM (inactive) | 14.6 µM (inactive) | 85.7 µM (inactive)
10 | O=C1CC2C(=O)N(Cc3ccccc3)C1C(S(=O)(=O)c1ccccc1)C2S(=O)(=O)c1ccccc1 (centres undefined) | 1.32 | 1.11 µM (active) | 0.363 µM (active) | 1.68 µM (inactive) | 17.7 µM (inactive) | 2.55 µM (inactive) | 18.3 µM (inactive) | 2.08 µM (inactive) | 22.1 µM (inactive) | 0.528 µM (active) | 2.92 µM (inactive) | 2.05 µM (inactive) | 19.1 µM (inactive) | 1.69 µM (inactive) | 10.7 µM (inactive) | 1.78 µM (inactive) | 2.09 µM (inactive) | 1.67 µM (inactive) | 1.68 µM (inactive) | 1.78 µM (inactive)
11 | COc1ccc2c(c1)CCCN2CCCCCCCCCCN(CCC(C)C)CCC(C)C | 8.34 | 7.29 µM (inactive) | 2.2 µM (inactive) |  | 11.2 µM (inactive) | 5.58 µM (inactive) | 16.7 µM (inactive) | 5.61 µM (inactive) | 13.1 µM (inactive) | 12.6 µM (inactive) | 13.2 µM (inactive) | 3.39 µM (inactive) | 11.7 µM (inactive) | 12.1 µM (inactive) | 3.11 µM (inactive) | 4.79 µM (inactive) | 4.24 µM (inactive) | 10.9 µM (inactive) | 12.4 µM (inactive) | 16.4 µM (inactive)
12 | O=C(O)CSC(CC1(c2ccc(Cl)cc2)NC(=O)CS1)c1ccc(Cl)cc1 (centres undefined) | > 100 | 69.3 µM (inactive) | 46.2 µM (inactive) | > 100 µM (inactive) | 85.5 µM (inactive) | > 100 µM (inactive) | > 100 µM (inactive) | > 100 µM (inactive) | > 100 µM (inactive) | > 100 µM (inactive) | 89.7 µM (inactive) | > 100 µM (inactive) | > 100 µM (inactive) | > 100 µM (inactive) | > 100 µM (inactive) | 45.6 µM (inactive) | > 100 µM (inactive) | > 100 µM (inactive) | > 100 µM (inactive) | > 100 µM (inactive)
13 | CCOC(=O)C1Nc2ccc([N+](=O)[O-])cc2[C@H]2OCC[C@@H]12 (some centres undefined) | > 100 | > 100 µM (inactive) | > 100 µM (inactive) | > 100 µM (inactive) | > 100 µM (inactive) | > 100 µM (inactive) | > 100 µM (inactive) | > 100 µM (inactive) | > 100 µM (inactive) | > 100 µM (inactive) | > 100 µM (inactive) | > 100 µM (inactive) | > 100 µM (inactive) | > 100 µM (inactive) |  | > 100 µM (inactive) | > 100 µM (inactive) | > 100 µM (inactive) | > 100 µM (inactive) | > 100 µM (inactive)
14 | CC(=O)O[C@H]1C=CC(=O)C(C)CC1C (some centres undefined) |  | 60.1 µM (inactive) | 37.9 µM (inactive) | > 100 µM (inactive) | > 100 µM (inactive) | > 100 µM (inactive) | > 100 µM (inactive) | > 100 µM (inactive) | > 100 µM (inactive) | 73.5 µM (inactive) | > 100 µM (inactive) | > 100 µM (inactive) | > 100 µM (inactive) | 55.8 µM (inactive) | > 100 µM (inactive) | > 100 µM (inactive) | > 100 µM (inactive) | > 100 µM (inactive) | 45.8 µM (inactive) | > 100 µM (inactive)
15 | Cc1cc(O)c2c(c1)C(=O)c1c(c(O)cc(O)c1-c1c(O)cc(O)c3c1C(=O)c1cc(C)cc(O)c1C3=O)C2=O [SKYRIN] | 8.61 | 7.6 µM (inactive) | 17.1 µM (inactive) | 10.6 µM (inactive) | 9.08 µM (inactive) | 8.59 µM (inactive) | 14.4 µM (inactive) | 10.9 µM (inactive) | 12.4 µM (inactive) | 14.4 µM (inactive) | 8.36 µM (inactive) | 10.6 µM (inactive) | 8.87 µM (inactive) | 24.8 µM (inactive) | 5.26 µM (inactive) | 6.31 µM (inactive) | 7.87 µM (inactive) |  | 12.9 µM (inactive) | 
